According to patent US10065951B2, “Small molecule transcription modulators of bromodomains” (Icahn School of Medicine at Mount Sinai, priority 2014, dated 2018):

Molecular target: T1, CBP BRD (Homo sapiens, UniProt Q92793)
T1 construct: made in house
Test: In vitro fluorescence polarization-based competition binding assay
Settings: within series 4a-d
Procedure: FIG. 1A is a line drawing of the florescence polarization competition assay measuring the binding affinity of compounds 4a-d to the CBP BRD. FIG. 1B provides the IC50 values of compounds 4a-d and MS7972. Results are representative of three independent experiments and the error is SD.
Expression and purification of the recombinant CBP BRD in poly-his tag form was conducted using the procedure as previously described (Mujtaba, S. et al., Mol Cell 13, 251-63 (2004)). The purified protein was confirmed with mass spectroscopy. Binding assays were performed with CBP BRD (5 μM) and fluorescent probe (10 nM), and increasing concentration of unlabeled competing ligand.

T1 sequence (Q92793 1085-1192 limits assumed): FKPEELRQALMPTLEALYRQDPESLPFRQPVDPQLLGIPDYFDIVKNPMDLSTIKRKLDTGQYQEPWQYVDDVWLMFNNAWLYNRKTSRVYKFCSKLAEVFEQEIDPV

Compound | binding affinity to CBP BRD, in words
CC(=O)NCCCCCCn1c2c(c3ccccc31)C(=O)NCC2 [4d, 2,3,4,5-tetrahydro-5-(6′-acetamidohexyl)-1H-pyrido-[4,3-b]indol-1-one] | partial or total loss of the affinity
CC(=O)NCCn1c2c(c3ccccc31)C(=O)NCC2 [4a, 2,3,4,5-tetrahydro-5-(2′-acetamidoethyl)-1H-pyrido-[4,3-b]indol-1-one] | lowest improvement of the series
